# Measured values from patent publication US20190119282A1, “IMIDAZOPYRIDAZINES USEFUL AS INHIBITORS OF THE PAR-2 SIGNALING PATHWAY” (Vertex Pharmaceuticals Incorporated, priority 2013, published 2019).
# Legend:
# [1] = target: T1, PAR2 (HT-29 cells, trypsin activation) (Homo sapiens, UniProt P55085); assay: Ca FLIPR TETRA assay, ANTAGONIST mode, stimulation with 3.1 U/mL trypsin; format: cell-based; conditions: HT-29 cells, antagonist mode, stimulation with 3.1 U/mL trypsin
# T1 construct: host or cells: HT-29 cells
# T1 sequence (P55085 26-397): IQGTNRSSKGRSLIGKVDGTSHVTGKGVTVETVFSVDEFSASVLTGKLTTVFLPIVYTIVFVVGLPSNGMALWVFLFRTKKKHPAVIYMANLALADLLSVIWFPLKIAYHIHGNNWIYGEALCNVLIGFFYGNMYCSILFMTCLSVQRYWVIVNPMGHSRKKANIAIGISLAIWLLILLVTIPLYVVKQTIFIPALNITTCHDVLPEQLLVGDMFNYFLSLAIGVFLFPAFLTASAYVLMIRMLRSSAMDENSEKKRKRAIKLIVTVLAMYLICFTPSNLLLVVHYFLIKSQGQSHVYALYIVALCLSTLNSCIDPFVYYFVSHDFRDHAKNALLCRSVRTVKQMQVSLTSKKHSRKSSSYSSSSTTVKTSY
# Method in brief: (§1)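 Inhibition of activator-evoked Ca2+ flux was recorded on FLIPR Tetra in HT-29 cells after 30 min compound exposure at r.t. A prior read checked whether compounds alone triggered Ca2+ release.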
# [2] = tested on: UTP-stimulated Ca2+ response in HT-29 cells; assay: Ca FLIPR TETRA assay, ANTAGONIST mode, stimulation with 0.6 μM UTP; format: cell-based, human; conditions: Homo sapiens; HT-29 cells, antagonist mode, stimulation with 0.6 μM UTP
# Method in brief: as §1
# [3] = tested on: Thrombin-stimulated Ca2+ response in HT-29 cells; assay: Ca FLIPR TETRA assay, ANTAGONIST mode, stimulation with 1 U/mL Thrombin; format: cell-based, human; conditions: Homo sapiens; HT-29 cells, antagonist mode, stimulation with 1 U/mL Thrombin
# Method in brief: as §1
# [4] = target: T2, PAR2 (HT-29 cells, SLIGKV activation) (Homo sapiens, UniProt P55085); assay: Ca FLIPR TETRA assay, ANTAGONIST mode, stimulation with 8 μM SLIGKV; format: cell-based; conditions: HT-29 cells, antagonist mode, stimulation with 8 μM SLIGKV
# T2 construct: host or cells: HT-29 cells
# T2 sequence (P55085 26-397): T1 sequence (P55085 26-397)
# Method in brief: as §1
IC50 [1] [nM],IC50 [2] [nM],IC50 [3] [nM],IC50 [4] [nM],SMILES
1.6,> 1000,> 1000,1.3,CC(C)c1cc(-c2ccc(C(F)(F)F)cc2)nn2cc(C(=O)N3CCN(C(=O)C4CC(C)(O)C4)CC3(C)C)nc12 (centres unmarked) [Compound I-371]
5.6,> 1000,> 1000,4.5,Cc1nc(C(=O)N2CCN(C(=O)c3cn4nc(-c5ccc(C(F)(F)F)cc5)cc(C(C)C)c4n3)C(C)(C)C2)c[nH]1 [Compound I-372]
8.1,> 1000,> 1000,6.5,Cc1ccc(-c2cc(C(C)C)c3nc(C(=O)N4CCN(C(=O)c5ncccn5)CC4(C)C)cn3n2)cc1F [Compound I-373]
1.6,> 1000,> 1000,1.4,Cc1ccc(-c2cc(C(C)C)c3nc(C(=O)N4CCN(C(=O)c5ccn[nH]5)CC4(C)C)cn3n2)cc1F [Compound I-374]
3.8,> 1000,> 1000,2.3,Cc1ccc(-c2cc(C(C)C)c3nc(C(=O)N4CCN(C(=O)c5ccccn5)CC4(C)C)cn3n2)cc1F [Compound I-375]
3.2,> 1000,> 1000,2,Cc1nc(C(=O)N2CCN(C(=O)c3cn4nc(-c5ccc(C)c(F)c5)cc(C(C)C)c4n3)C(C)(C)C2)c[nH]1 [Compound I-376]
29,> 1000,> 1000,19,Cc1cc(-c2cc(C(C)C)c3nc(C(=O)N4CCN(C(=O)c5ncccn5)CC4(C)C)cn3n2)ccc1F [Compound I-377]
7.2,> 1000,> 1000,5,Cc1cc(-c2cc(C(C)C)c3nc(C(=O)N4CCN(C(=O)C5CC(C)(O)C5)CC4(C)C)cn3n2)ccc1F (centres unmarked) [Compound I-378]
10.5,> 1000,> 1000,9.4,Cc1cc(-c2cc(C(C)C)c3nc(C(=O)N4CCN(C(=O)c5ccccn5)CC4(C)C)cn3n2)ccc1F [Compound I-379]
7.4,> 1000,> 1000,8.3,Cc1nc(C(=O)N2CCN(C(=O)c3cn4nc(-c5ccc(F)c(C)c5)cc(C(C)C)c4n3)C(C)(C)C2)c[nH]1 [Compound I-380]
1.2,> 1000,> 1000,1.3,Cc1cc(-c2cc(C(C)(C)C)c3nc(C(=O)N4CCN(C(=O)c5ccn[nH]5)CC4(C)C)cn3n2)ccc1F [Compound I-381]
0.7,> 1000,> 1000,0.6,Cc1cc(C(=O)N2CCN(C(=O)c3cn4nc(-c5ccc(F)c(C)c5)cc(C(C)(C)C)c4n3)C(C)(C)C2)[nH]n1 [Compound I-382]
2.9,> 1000,> 1000,1.9,Cc1nc(C(=O)N2CCN(C(=O)c3cn4nc(-c5ccc(F)c(C)c5)cc(C(C)(C)C)c4n3)C(C)(C)C2)c[nH]1 [Compound I-383]
0.8,> 1000,> 1000,0.6,Cc1cc(-c2cc(C(C)(C)C)c3nc(C(=O)N4CCN(C(=O)C5CC(C)(O)C5)CC4(C)C)cn3n2)ccc1F (centres unmarked) [Compound I-384]
4.3,> 1000,> 1000,2.2,Cc1nnc(C(=O)N2CCN(C(=O)c3cn4nc(-c5ccc(F)c(C)c5)cc(C(C)(C)C)c4n3)C(C)(C)C2)o1 [Compound I-385]
2.6,> 1000,> 1000,1.7,Cc1cc(-c2cc(C(C)(C)C)c3nc(C(=O)N4CCN(C(=O)c5ccccn5)CC4(C)C)cn3n2)ccc1F [Compound I-386]
3.1,> 1000,> 1000,1.4,Cc1cc(-c2cc(C(C)(C)C)c3nc(C(=O)N4CCN(C(=O)c5ncccn5)CC4(C)C)cn3n2)ccc1F [Compound I-387]
15.5,> 1000,> 1000,12.5,Cc1cc(-c2cc(C(C)C)c3nc(C(=O)N4CCN(c5c[nH]cn5)C(=O)C4(C)C)cn3n2)ccc1F [Compound I-388]
25,> 1000,> 1000,20,Cc1nc(N2CCN(C(=O)c3cn4nc(-c5ccc(F)c(C)c5)cc(C(C)C)c4n3)C(C)(C)C2=O)c[nH]1 [Compound I-389]

IC50 [1] [nM],IC50 [2] [nM],IC50 [3] [nM],IC50 [4] [nM],SMILES
1.3,> 1000,> 1000,1,Cc1cc(C(=O)N2CCN(C(=O)c3cn4nc(-c5ccc(C(F)(F)F)cc5)cc(C(C)C)c4n3)C(C)(C)C2)[nH]n1 [Compound I-390]
2.2,> 1000,> 1000,1.8,Cc1ccc(-c2cc(C(C)(C)C)c3nc(C(=O)N4CCN(C(=O)c5ccccn5)CC4(C)C)cn3n2)cc1 [Compound I-391]
2.5,> 1000,> 1000,1.4,Cc1ccc(-c2cc(C(C)(C)C)c3nc(C(=O)N4CCN(C(=O)c5ncccn5)CC4(C)C)cn3n2)cc1 [Compound I-392]
1.5,> 1000,> 1000,1.6,Cc1ccc(-c2cc(C(C)(C)C)c3nc(C(=O)N4CCN(C(=O)c5nnc(C)o5)CC4(C)C)cn3n2)cc1 [Compound I-393]
1.1,> 1000,> 1000,0.9,Cc1ccc(-c2cc(C(C)(C)C)c3nc(C(=O)N4CCN(C(=O)c5ccn[nH]5)CC4(C)C)cn3n2)cc1 [Compound I-394]
0.5,> 1000,> 1000,0.6,Cc1ccc(-c2cc(C(C)(C)C)c3nc(C(=O)N4CCN(C(=O)c5cc(C)n[nH]5)CC4(C)C)cn3n2)cc1 [Compound I-395]
0.7,> 1000,> 1000,0.4,Cc1ccc(-c2cc(C(C)(C)C)c3nc(C(=O)N4CCN(C(=O)[C@H]5C[C@@](C)(O)C5)CC4(C)C)cn3n2)cc1 [Compound I-396]
0.6,> 1000,> 1000,0.6,Cc1ccc(-c2cc(C(C)(C)C)c3nc(C(=O)N4CCN(C(=O)c5nc(C)n[nH]5)CC4(C)C)cn3n2)cc1 [Compound I-397]
2.6,> 1000,> 1000,3.1,CC(C)(C)c1cc(-c2ccc(C(F)(F)F)cc2)nn2cc(C(=O)N3CCN(C(=O)c4ccccn4)CC3(C)C)nc12 [Compound I-398]
1.5,> 1000,> 1000,1.8,CC(C)(C)c1cc(-c2ccc(C(F)(F)F)cc2)nn2cc(C(=O)N3CCN(C(=O)c4ncccn4)CC3(C)C)nc12 [Compound I-399]
2.8,> 1000,> 1000,3.6,Cc1nnc(C(=O)N2CCN(C(=O)c3cn4nc(-c5ccc(C(F)(F)F)cc5)cc(C(C)(C)C)c4n3)C(C)(C)C2)o1 [Compound I-400]
1.5,> 1000,> 1000,2.1,CC(C)(C)c1cc(-c2ccc(C(F)(F)F)cc2)nn2cc(C(=O)N3CCN(C(=O)c4ccn[nH]4)CC3(C)C)nc12 [Compound I-401]
1,> 1000,> 1000,0.8,Cc1cc(C(=O)N2CCN(C(=O)c3cn4nc(-c5ccc(C(F)(F)F)cc5)cc(C(C)(C)C)c4n3)C(C)(C)C2)[nH]n1 [Compound I-402]
1.5,> 1000,> 1000,1,Cc1n[nH]c(C(=O)N2CCN(C(=O)c3cn4nc(-c5ccc(C(F)(F)F)cc5)cc(C(C)(C)C)c4n3)C(C)(C)C2)n1 [Compound I-403]
4.3,> 1000,690,0.9,Cc1cccc(-c2cc(C(C)(C)C)c3nc(C(=O)N4CCN(C(=O)c5ccn[nH]5)CC4(C)C)cn3n2)c1 [Compound I-404]
1.8,> 1000,> 1000,1.6,Cc1cc(-c2cc(C(C)C)c3nc(C(=O)N4CCN(c5cn[nH]c5)C(=O)C4(C)C)cn3n2)ccc1F [Compound I-405]
2.8,> 1000,370,2.2,Cc1cccc(-c2cc(C(C)(C)C)c3nc(C(=O)N4CCN(C(=O)c5cc(C)n[nH]5)CC4(C)C)cn3n2)c1 [Compound I-406]
5.1,> 1000,> 1000,5.6,Cc1cccc(-c2cc(C(C)(C)C)c3nc(C(=O)N4CCN(C(=O)c5c[nH]c(C)n5)CC4(C)C)cn3n2)c1 [Compound I-407]
4.3,> 1000,540,2.8,Cc1cccc(-c2cc(C(C)(C)C)c3nc(C(=O)N4CCN(C(=O)c5nc(C)n[nH]5)CC4(C)C)cn3n2)c1 [Compound I-408]
